# Values quoted from earlier work as cited in patent publication US10022338B2, “Honey bee mite disruptive compounds and methods of application” (SIMON FRASER UNIVERSITY, priority 2014, dated 2018).
# Test system: olfactory sensory organ on the Varroa foreleg
# Details: separate study
structure (smiles),measurement,setting,value
"CCN(CC)C(=O)c1cccc(C)c1 [DEET, 3-methyl-N,N-diethylbenzamide]",long-term inhibition of Varroa's response to bee headspace,high dose,long-term inhibit
same,short-term inhibition of Varroa's response to bee headspace,,not significant
